Test results as given in patent US10793564B2, “Amino acid compounds and methods of use” (Pliant Therapeutics, Inc., priority 2018, dated 2020).

Target: recombinant human integrin αVβ6 (Homo sapiens (Human), UniProt P06756+P18564)
Experiment: Solid phase integrin αVβ6 binding assay
Settings: inhibition of recombinant TGFβ1 LAP binding to coated integrin, IC50 presented in four ranges, read-out: αvβ6 Inhibition IC50 (nM) - range
How it was run: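 Plates coated with recombinant human αVβ6 (2 μg/mL) and blocked; compounds competed with TGFβ1 LAP (0.67 μg/mL) in Mn2+ (0.5 mM)/BSA/sucrose TBS for 2 h at 25° C. Bound LAP detected by biotin anti-LAP and peroxidase-streptavidin; IC50 by four-parameter logistic fit.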

Chain of recombinant human integrin αVβ6 (P06756 31-992): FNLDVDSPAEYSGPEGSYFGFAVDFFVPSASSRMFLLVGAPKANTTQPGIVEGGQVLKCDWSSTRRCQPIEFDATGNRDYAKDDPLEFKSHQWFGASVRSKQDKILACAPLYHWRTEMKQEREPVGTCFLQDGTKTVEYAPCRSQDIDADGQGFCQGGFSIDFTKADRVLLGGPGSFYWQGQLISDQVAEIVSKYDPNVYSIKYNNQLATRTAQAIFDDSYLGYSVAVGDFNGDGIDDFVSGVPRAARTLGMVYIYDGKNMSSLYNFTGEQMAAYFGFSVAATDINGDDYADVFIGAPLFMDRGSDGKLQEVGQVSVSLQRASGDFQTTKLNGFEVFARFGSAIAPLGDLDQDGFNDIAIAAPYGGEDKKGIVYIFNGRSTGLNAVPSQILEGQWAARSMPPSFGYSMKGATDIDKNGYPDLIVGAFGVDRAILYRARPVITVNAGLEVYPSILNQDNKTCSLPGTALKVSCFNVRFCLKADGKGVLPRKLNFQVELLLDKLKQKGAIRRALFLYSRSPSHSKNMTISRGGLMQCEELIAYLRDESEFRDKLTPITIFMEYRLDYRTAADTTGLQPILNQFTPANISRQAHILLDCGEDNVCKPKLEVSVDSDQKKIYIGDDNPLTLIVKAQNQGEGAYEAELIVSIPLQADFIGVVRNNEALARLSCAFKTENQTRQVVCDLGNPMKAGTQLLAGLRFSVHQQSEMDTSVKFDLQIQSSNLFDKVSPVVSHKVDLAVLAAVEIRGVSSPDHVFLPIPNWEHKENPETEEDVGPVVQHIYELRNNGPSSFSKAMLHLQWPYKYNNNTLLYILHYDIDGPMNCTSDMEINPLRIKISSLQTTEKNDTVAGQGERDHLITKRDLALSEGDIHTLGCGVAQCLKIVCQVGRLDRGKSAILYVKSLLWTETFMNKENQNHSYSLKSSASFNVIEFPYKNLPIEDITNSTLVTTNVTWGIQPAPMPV
Chain of recombinant human integrin αVβ6 (P18564 22-707): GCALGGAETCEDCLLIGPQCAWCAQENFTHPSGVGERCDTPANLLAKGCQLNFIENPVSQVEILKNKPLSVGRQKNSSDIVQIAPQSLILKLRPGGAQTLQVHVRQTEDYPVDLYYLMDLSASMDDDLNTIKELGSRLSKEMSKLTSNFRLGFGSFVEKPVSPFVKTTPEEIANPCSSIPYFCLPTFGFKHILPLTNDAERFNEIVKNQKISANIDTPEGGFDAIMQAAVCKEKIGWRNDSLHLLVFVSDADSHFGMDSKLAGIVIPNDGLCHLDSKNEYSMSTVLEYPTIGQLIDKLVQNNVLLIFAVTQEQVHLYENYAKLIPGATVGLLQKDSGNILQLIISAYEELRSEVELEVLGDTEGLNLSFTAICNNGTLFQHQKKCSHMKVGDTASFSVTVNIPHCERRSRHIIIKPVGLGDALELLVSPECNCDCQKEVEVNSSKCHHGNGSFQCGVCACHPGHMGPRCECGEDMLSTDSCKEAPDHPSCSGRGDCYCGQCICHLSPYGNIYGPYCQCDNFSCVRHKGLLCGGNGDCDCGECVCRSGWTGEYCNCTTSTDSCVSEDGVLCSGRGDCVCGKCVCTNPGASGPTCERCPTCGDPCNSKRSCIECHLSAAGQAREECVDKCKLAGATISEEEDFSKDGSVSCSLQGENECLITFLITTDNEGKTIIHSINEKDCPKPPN

SMILES	IC50
O=C(O)[C@H](CCN(CCCCc1ccc2c(n1)NCCC2)CC1(F)COC1)Nc1ncnc2ccccc12 [Compound 147, (S)-4-(((3-fluorooxetan-3-yl)methyl) (4-(5,6,7,8-tetrahydro-1,8-naphthyridin-2-yl)butyl)amino)-2-(quinazolin-4-ylamino) butanoic Acid]	50 to 250 nM
COCCN(CCCCc1ccc2c(n1)NCCC2)CC[C@H](Nc1nccc2ccccc12)C(=O)O [Compound 34, (S)-2-(isoquinolin-1-ylamino)-4-((2-methoxyethyl) (4-(5,6,7,8-tetrahydro-1,8-naphthyridin-2-yl)butyl)amino) butanoic Acid]	> 1000 nM
O=C(O)[C@H](CCN(CCCCc1ccc2c(n1)NCCC2)CC(F)F)Nc1ncc(C(F)(F)F)cn1 [Compound 95, (S)-4-((2,2-difluoroethyl) (4-(5,6,7,8-tetrahydro-1,8-naphthyridin-2-yl)butyl)amino)-2-((5-(trifluoromethyl)pyrimidin-2-yl)amino) butanoic Acid]	> 1000 nM
CS(=O)(=O)CCN(CCCCc1ccc2c(n1)NCCC2)CC[C@H](Nc1nc(-c2cccnc2)nc2ccccc12)C(=O)O [Compound 107, (S)-4-((2-(methylsulfonyl)ethyl) (4-(5,6,7,8-tetrahydro-1,8-naphthyridin-2-yl)butyl)amino)-2-((2-(pyridin-3-yl)quinazolin-4-yl)amino) butanoic Acid]	250 to 1000 nM
Cn1ncc2c(N[C@@H](CCN(CCCCc3ccc4c(n3)NCCC4)CC(F)F)C(=O)O)ncnc21 [Compound 88, (S)-4-((2,2-difluoroethyl) (4-(5,6,7,8-tetrahydro-1,8-naphthyridin-2-yl)butyl)amino)-2-((1-methyl-1H-pyrazolo[3,4-d]pyrimidin-4-yl)amino) butanoic Acid]	> 1000 nM
O=C(O)[C@H](CCN(CCCCc1ccc2c(n1)NCCC2)C1CC(F)(F)C1)Nc1ncnc2ccccc12 [Compound 9, (S)-4-((3,3-difluorocyclobutyl) (4-(5,6,7,8-tetrahydro-1,8-naphthyridin-2-yl)butyl)amino)-2-(quinazolin-4-ylamino) butanoic Acid]	> 1000 nM
CS(=O)(=O)CCN(CCCCc1ccc2c(n1)NCCC2)CC[C@H](Nc1cc(-n2cccn2)ncn1)C(=O)O [Compound 126, (S)-2-((6-(1H-pyrazol-1-yl)pyrimidin-4-yl)amino)-4-((2-(methylsulfonyl)ethyl) (4-(5,6,7,8-tetrahydro-1,8-naphthyridin-2-yl)butyl)amino) butanoic Acid]	> 1000 nM
O=C(O)[C@H](CCN(CCCCc1ccc2c(n1)NCCC2)CCOc1ccc(F)cc1)Nc1ncc(Br)cn1 [Compound 144, (S)-2-((5-bromopyrimidin-2-yl)amino)-4-((2-(4-fluorophenoxy)ethyl) (4-(5,6,7,8-tetrahydro-1,8-naphthyridin-2-yl)butyl)amino) butanoic Acid]	50 to 250 nM
O=C(O)[C@H](CCN(CCCCc1ccc2c(n1)NCCC2)CCOc1ccccc1)Nc1ncc(Br)cn1 [Compound 83, (S)-2-((5-bromopyrimidin-2-yl)amino)-4-((2-phenoxyethyl) (4-(5,6,7,8-tetrahydro-1,8-naphthyridin-2-yl)butyl)amino) butanoic Acid]	< 50 nM
COCCN(CCCCc1ccc2c(n1)NCCC2)CC[C@H](Nc1ncnc2cccc(F)c12)C(=O)O [Compound 18, (S)-2-((5-fluoroquinazolin-4-yl)amino)-4-((2-methoxyethyl) (4-(5,6,7,8-tetrahydro-1,8-naphthyridin-2-yl)butyl)amino) butanoic Acid]	< 50 nM
N#Cc1cnc(N[C@@H](CCN(CCCCc2ccc3c(n2)NCCC3)CC(F)F)C(=O)O)nc1 [Compound 118, (S)-2-((5-cyanopyrimidin-2-yl)amino)-4-((2,2-difluoroethyl) (4-(5,6,7,8-tetrahydro-1,8-naphthyridin-2-yl)butyl)amino) butanoic Acid]	> 1000 nM

Next, values leading:

IC50	SMILES
< 50 nM	O=C(O)[C@H](CCN(CCCF)CCCCc1ccc2c(n1)NCCC2)Nc1ncnc2ccccc12 [Compound 30, (S)-4-((3-fluoropropyl) (4-(5,6,7,8-tetrahydro-1,8-naphthyridin-2-yl)butyl)amino)-2-(quinazolin-4-ylamino) butanoic Acid]
< 50 nM	O=C(O)[C@H](CCN(CCCCc1ccc2c(n1)NCCC2)CCOC(F)F)Nc1ncnc2ccccc12 [Compound 35, (S)-4-((2-(difluoromethoxy)ethyl) (4-(5,6,7,8-tetrahydro-1,8-naphthyridin-2-yl)butyl)amino)-2-(quinazolin-4-ylamino) butanoic Acid]
< 50 nM	Cn1ncc2c(N[C@@H](CCN(CCCCc3ccc4c(n3)NCCC4)CCOc3ccccc3)C(=O)O)ncnc21 [Compound 82, (S)-2-((1-methyl-1H-pyrazolo[3,4-d]pyrimidin-4-yl)amino)-4-((2-phenoxyethyl) (4-(5,6,7,8-tetrahydro-1,8-naphthyridin-2-yl)butyl)amino) butanoic Acid]
< 50 nM	COCCN(CCCCc1ccc2c(n1)NCCC2)CC[C@H](Nc1ncnc2ccccc12)C(=O)O [Compound 5, (S)-4-((2-methoxyethyl) (4-(5,6,7,8-tetrahydro-1,8-naphthyridin-2-yl)butyl)amino)-2-(quinazolin-4-ylamino) butanoic Acid]
< 50 nM	O=C(O)[C@H](CCN(CCCCc1ccc2c(n1)NCCC2)CCOc1ccccc1)Nc1nc(-c2cccnc2)nc2ccccc12 [Compound 94, (S)-4-((2-phenoxyethyl) (4-(5,6,7,8-tetrahydro-1,8-naphthyridin-2-yl)butyl)amino)-2-((2-(pyridin-3-yl)quinazolin-4-yl)amino) butanoic Acid]
< 50 nM	COCCN(CCCCc1ccc2c(n1)NCCC2)CC[C@H](Nc1ncnc2cc(F)ccc12)C(=O)O [Compound 7, (S)-2-((7-fluoroquinazolin-4-yl)amino)-4-((2-methoxyethyl) (4-(5,6,7,8-tetrahydro-1,8-naphthyridin-2-yl)butyl)amino) butanoic Acid]
< 50 nM	CO[C@H](C)CN(CCCCc1ccc2c(n1)NCCC2)CC[C@H](Nc1ncnc2c1cnn2C)C(=O)O [Compound 74, (S)-4-(((R)-2-methoxypropyl) (4-(5,6,7,8-tetrahydro-1,8-naphthyridin-2-yl)butyl)amino)-2-((1-methyl-1H-pyrazolo[3,4-d]pyrimidin-4-yl)amino) butanoic Acid]
